How the values were obtained:
Format in all cases: cell-based
[1] = tested on: Malassézia furfur IP 1363-82; Malassezia furfur sauvage; experiment: Combination study, checkerboard method on microplate, CMF in association and FIC Index; details: for CMF % Associés: product in association (Rétinal + Ald. C11), checkerboard, 32°C
Procedure: (§1) *souche : Malassézia furfur IP 1363-82 Malassezia furfur sauvage collecté auprès d'un pityriasis versicolor chez un patient hospitalisé au Centre Hospitalier Régional de Toulouse Rangueil (France). *milieu de culture : Dixon modifié (sous forme de bouillon et sous forme gélosée par ajout d'agar) *appareillage : microplaques stériles Nunc ® Nunclon à 96 puits eau distillée stérile tubes à essais stériles étuve à 32°C spectrophotomètre et cuves adaptées billes de verre stériles *produits : les solutions-mères des produits cités ci-dessous ont été préparés comme suit : • Trans rétinal :solution à 1% dans 20% d'éthanol 95 complétée avec de l'eau distillée stérile. • undécanal :solution à 1% dans 10% de Tween 80 complétée par de l'eau distillée stérile.
Des solutions-mères comme décrites précédemment égales à deux fois la CMF sont réalisées. La méthode de l'échiquier rapportée sur microplaque est utilisée pour croiser les séries de dilution au demi de chaque actif. Après ensemencement et incubation à 32°C, on procède à la lecture des CMF. Un repérage des CMF donnant lieu à des synergies peut alors se faire. Nous obtenons après calcul des FIC Index le tableau suivant :
La synergie peut être mise en évidence par le calcul des Index FIC (Fractional Inhibitory Concentration) des produits. Pour cela, on mesure la valeur de la CMF (ou Concentration Minimale Fongistatique) des principes actifs à tester vis-à-vis d'un type de germe.
Le FIC d'un produit A est défini comme : FICA =(CMF du produit A en association)/(CMF du produit A seul) [formula]
L'association de deux antifongiques A et B est synergique si la somme FIC des rapports (FICA et FICB) est inférieure ou égale à 0,75.
Plus la valeur FIC est faible, plus la synergie est importante.
On considère qu'il y a simple additivité pour des valeurs de FIC comprises entre 0,75 et 1,1 et indifférente dans l'intervalle compris entre 1,1 et 2; au-delà, l'association est notée antagoniste.

[2] = tested on: Malassézia furfur IP 1363-82; Malassezia furfur sauvage; experiment: Determination of the minimal fungistatic concentration (CMF), serial two-fold dilution in Dixon broth in microplates; details: product alone, 32°C, 48 to 72 h
Procedure: as §1
• une distribution de 100µl de bouillon Dixon est réalisée dans chaque cupule de la microplaque stérile. • une distribution de 100µl des différents produits a lieu dans une cupule, une cupule par produit (on est alors à 50% d'actif). • une série de dilutions sériées au demi est ensuite réalisée contre un témoin stérilité du milieu de culture et un autre témoin de la vigueur de la souche.
L'ensemencement de la microplaque a lieu sous atmosphère stérile après préparation de l'inoculum fongique comme suit : […]

Malassezia = experiment: Antifungal activity on Malassezia, general statements in the description; details: alone

Row | Compound | CMF % Associés [1] | FIC Index ([1]; sum of FIC for the association Rétinal + Ald. C11, synergy if <= 0,75) | CMF % Seuls [2] | action sur les levures telles Malassezia (Malassezia)
1 | CCCCCCCCCCC=O [Ald. C11, undécanal] | 0,0001 – 0,03% | – | – | –
2 | CC1=C(/C=C/C(C)=C/C=C/C(C)=C/C=O)C(C)(C)CCC1 [Rétinal, Trans rétinal] | 0,06 – 0,25% | 0,51 à 0,75 | 0,25 – 0,5% | ne possède pas d'action notoire
